Biological target: SARS-COV-2 3CLpro/Mpro protease (Severe acute respiratory syndrome coronavirus 2 (2019-nCoV) (SARS-CoV-2), UniProt P0DTD1)
Assay: Inhibitory effect on SARS-COV-2 3CLpro/Mpro protease by fluorescence resonance energy transfer
Type: biochemical
Conditions: activity intervals A-D, read-out: IC50 (nM), Inhibition on SARS-CoV-2 3CLpro/Mpro protease

O=C(c1cncc(Br)c1)N1CC[C@@H](Nc2c(C(=O)N3CCC(F)(F)CC3)cc(Br)cc2C(F)(F)F)C1 [Example 69]
IC50: 50 to 100 nM

O=C(c1cncc(C(F)(F)F)c1)N1CCC[C@@H](Nc2c(C(=O)N3CCC(F)(F)CC3)cc(Br)cc2[N+](=O)[O-])C1 [Example 70]
IC50: 10 to 50 nM

Nc1cncc(C(=O)N2CCC[C@@H](Nc3c(C(=O)N4CCC(F)(F)CC4)cc(Br)cc3[N+](=O)[O-])C2)c1 [Example 71]
IC50: 10 to 50 nM

C[C@@H]1C[C@H](C)CN(C(=O)c2cc(Br)cc([N+](=O)[O-])c2N[C@@H]2CCCN(C(=O)c3cncc(Br)c3)C2)C1 [Example 72]
IC50: < 10 nM

C[C@@H]1CN(C(=O)c2cc(Br)cc([N+](=O)[O-])c2N[C@@H]2CCCN(C(=O)c3cncc(Br)c3)C2)C[C@H](C)N1 [Example 73]
IC50: 10 to 50 nM

Cc1cncc(C(=O)N2CCC[C@@H](Nc3c(C(=O)N4CCC(F)(F)CC4)cc(Br)cc3[N+](=O)[O-])C2)c1 [Example 74]
IC50: 50 to 100 nM

O=C(c1cncc(I)c1)N1CCC[C@@H](Nc2c(C(=O)N3CCC(F)(F)CC3)cc(Br)cc2[N+](=O)[O-])C1 [Example 75]
IC50: < 10 nM

C[C@@H]1CN(C(=O)c2cc(Br)cc([N+](=O)[O-])c2N[C@@H]2CCN(C(=O)c3cncc(Br)c3)C2)C[C@H](C)O1 [Example 76]
IC50: < 10 nM

CNc1cncc(C(=O)N2CCC[C@@H](Nc3c(C(=O)N4C[C@@H](C)N(C)[C@@H](C)C4)cc(Br)cc3[N+](=O)[O-])C2)c1 [Example 79]
IC50: 50 to 100 nM

CNc1cncc(C(=O)N2C[C@H](Nc3c(C(=O)N4CCCCC4)cc(Br)cc3[N+](=O)[O-])C(F)(F)C2)c1 [Example 81]
IC50: 10 to 50 nM

CNc1cncc(C(=O)N2C[C@H](Nc3c(C(=O)N4CCCCC4)cc(Br)cc3[N+](=O)[O-])C3(CC3)C2)c1 [Example 82]
IC50: 10 to 50 nM

CNc1cncc(C(=O)N2C[C@H](Nc3c(C(=O)N4CC5C(C4)C5(C)C)cc(Br)cc3[N+](=O)[O-])C3(CC3)C2)c1 (some centres unmarked) [Example 83]
IC50: 10 to 50 nM

CNc1cncc(C(=O)N2C[C@H](Nc3c(C(=O)N4CCN(CC(F)(F)F)CC4)cc(Br)cc3[N+](=O)[O-])C3(CC3)C2)c1 [Example 84]
IC50: 10 to 50 nM

CNc1cncc(C(=O)N2C[C@H](Nc3c(C(=O)N4CCN(CC(F)(F)F)C(=O)C4)cc(Br)cc3[N+](=O)[O-])C3(CC3)C2)c1 [Example 85]
IC50: 10 to 50 nM

CNc1cncc(C(=O)N2C[C@H](Nc3c(C(=O)N4C[C@H](C)C[C@H](C)C4)cc(Br)cc3[N+](=O)[O-])C3(CC3)C2)c1 [Example 86]
IC50: 10 to 50 nM

CNc1cncc(C(=O)N2C[C@H](Nc3c(C(=O)N4CCC(C)(C)CC4)cc(Br)cc3[N+](=O)[O-])C3(CC3)C2)c1 [Example 87]
IC50: 10 to 50 nM

Cc1cc(C(=O)N2C[C@H](Nc3c(C(=O)N4CC5C(C4)C5(C)C)cc(Br)cc3[N+](=O)[O-])C3(CC3)C2)cc(=O)[nH]1 (some centres unmarked) [Example 88]
IC50: 10 to 50 nM

Cc1cc(C(=O)N2C[C@H](Nc3c(C(=O)NCC(F)(F)F)cc(Br)cc3[N+](=O)[O-])C3(CC3)C2)cc(=O)[nH]1 [Example 89]
IC50: 10 to 50 nM

Cc1cc(C(=O)N2C[C@H](Nc3c(C(=O)N4CCN(CC(F)(F)F)CC4)cc(Br)cc3[N+](=O)[O-])C3(CC3)C2)cc(=O)[nH]1 [Example 90]
IC50: 10 to 50 nM

Cc1cc(C(=O)N2C[C@H](Nc3c(C(=O)N4CCN(CC(F)(F)F)C(=O)C4)cc(Br)cc3[N+](=O)[O-])C3(CC3)C2)cc(=O)[nH]1 [Example 91]
IC50: 10 to 50 nM

Cc1cc(C(=O)N2C[C@H](Nc3c(C(=O)N4C[C@H](C)C[C@H](C)C4)cc(Br)cc3[N+](=O)[O-])C3(CC3)C2)cc(=O)[nH]1 [Example 92]
IC50: 10 to 50 nM

Cc1cc(C(=O)N2C[C@H](Nc3c(C(=O)N4CCC(C)(C)CC4)cc(Br)cc3[N+](=O)[O-])C3(CC3)C2)cc(=O)[nH]1 [Example 93]
IC50: 10 to 50 nM

Cc1cc(C(=O)N2C[C@H](Nc3c(C(=O)N4CCC5(CC4)CC5)cc(Br)cc3[N+](=O)[O-])C3(CC3)C2)cc(=O)[nH]1 [Example 94]
IC50: 10 to 50 nM
